Patent US5856535A, “Aminosterol ester compounds” (priority 1996, dated 1999)
In brackets after ≈: the same amount, converted by molar mass. Entries after “also recorded” stand apart in the source; their conditions may differ. Where two headings read alike, the source gives them in different places.

Tests used:
E. Coli = experiment: antibiotic activity, E. Coli; type: cell-based; conditions: Escherichia coli
S. aureus = experiment: antibiotic activity, S. aureus; type: cell-based; conditions: Staphylococcus aureus
C. albicans = experiment: antibiotic activity, C. albicans; type: cell-based; conditions: Candida albicans
P. aerug = experiment: antibiotic activity, P. aerug; type: cell-based
melanoma cells = experiment: MTT assay for cell number; type: cell-based; conditions: for minimal effective concentration: 48 h, Table II, read-out: Minimum Effective Concentration, MTT assay
Protocol: In Table V, several aminosterol esters show efficacy in killing melanoma cells in the MTT assay.
(§1) The MTT assay for cell number is performed as follows. Cells are counted on a hemocytometer and diluted to a concentration of approx. 10,000 cells/well (55,000 cells/ml×0.18 ml). Cells are then plated in a 96 well microtiter plate and allowed to attach overnight. The next day, compounds are serially diluted from 1000 to 15.6 μg/ml and run in duplicate. 20 μl of each dilution are transferred to the pre-seeded microtiter plates. The final concentrations are 100 to 1.56 μg/ml. The plates are then incubated for 48 hours at 37° C. in 5% CO2. After 48 hours, MTT solution is added. The plate is re-incubated for 4 hours. Readings are done by removing all but 30 μl of media and MTT solution and dissolving the formazan crystals with DMSO. The formazan is dissolved by mixing on a rotating plate at low speed for about 30 minutes. Absorbance of converted dye is measured at a wavelength of 560 nm with background subtraction at 630 nm. The percent survival is determined by a comparison between the mean absorbance of the duplicate test lanes and the growth control.

[1] = system: human microvascular cells; experiment: endothelial cell cord formation assay (human microvascular cells, VEGF and bFGF, collagen matrix); type: cell-based; conditions: for minimal effective concentration: Homo sapiens, Endothelial cell; for inhibition of angiogenesis (in words): higher doses
Text: Endothelial cells have the capacity in vitro to form tubular aggregates resembling capillaries in various early stages of formation. This conversion occurs under relatively specific conditions, in which essential growth factors along with an effective substratum are provided. It has been shown that both the interaction of growth factors with the endothelial cell and its attachment to a substratum activate the NHE. The activation of this exchanger is believed to be required for subsequent morphologic transformation of the endothelial cell into a multicellular tubular structure.
To assess the effect of compounds on the cord-like structures formed by human microvascular cells when plated in the presence of VEGF (Vascular Endothelial Growth Factor) and basic fibroblast growth factor on a collagen matrix, a standard cord formation assay was performed using the method described by Goto, et al., "Synergistic Effects of Vascular Endothelial Growth Factor and Basic Fibroblast Growth Factor on the Proliferation and Cord Formation of Bovine Capillary Endothelial Cells Within Collagen Gels," Laboratory Investigation, Vol. 69, No. 5, 1993, pp. 508-517. This article is entirely incorporated herein by reference.

[2] = system: chick embryo vitelline capillaries; experiment: chick embryo vitelline capillary regression assay; type: in vivo; design: key to Chick embryo vitelline capillary regression: +: Vascular reactivity; 0: No vascular reactivity; +/-: Equivocal reactivity
Protocol: Using the chick embryo vitelline capillaries assay, various aminosterol compounds were tested for their ability to induce capillary regression. Each compound was applied in 0.1 ml of 15% Ficol 400 and PBS onto the embryo, and vascular regression was assessed after 60 minutes. These tests were conducted by the chorioallantoic membrane anti-angiogenesis assay by applying the material to be assayed to 3 day old fertilized chick embryos in the manner described by Wilks et al., "Inhibition of Angiogenesis With Combination Angiostatic Steroids and Suramin," Radiation Biology, Vol. 60, Nos. 1/2, 1991, pp. 73-77, which article is entirely incorporated herein by reference.
The 3-day chick embryo consists of an embryonic disc from which numerous vessels emerge and return, forming a "figure 8"-shaped structure--the embryo in the center with vascular loops extending outward over both poles. […] Following a lag period of around 15 minutes, the constriction of continuity between capillary and secondary vessels, generally on the "venous" side, was observed. Continued pulsatile blood flow progressed, resulting in a "swelling" of the blind tube, followed by a pinching off of the remaining connection and formation of an enclosed vascular sac resembling a "blood island." This process progressed until only the largest vessels remained intact.

[3] = system: Xenopus laevis Stages 59-60 tadpoles; experiment: tadpole assay; type: in vivo; conditions: for effect on embryonic epithelium / epithelial shedding (in words): 10 μg/ml where stated
splenocytes = experiment: mitogen proliferation assay (splenocytes of treated mice, Con A); type: in vivo; conditions: for potency in the mitogen proliferation assay (in words): mouse, in vivo; for Rel. potency to MSI-1436, Mitogen Proliferation Assay: 10 mg/kg iv
Protocol: For the attached Tables, the mitogen proliferation assay was performed by treating mice (male or female) with various amounts of the aminosterol test compounds. Some time later (typically between 2 hours and 14 days), the mice are sacrificed and their spleens removed. Splenocytes are harvested and cultured in the presence of between 1-10 μg/ml of Con A (Sigma) for 48 hours. See James Morgan, "Monoclonal Antibody Production," Modern Methods in Pharmacology, pp. 29-67, eds., Spector and Back, 1988. This excerpt is entirely incorporated herein by reference. Cell proliferation is monitored either by direct cell counting or by measurement of the incorporation of radioactive thymidine.

red blood cells = experiment: swelling of red blood cells; type: cell-based
in vitro = conditions: human, pbmc
HIV = experiment: inhibition of HIV replication in vitro (HIV Inhib.); type: cell-based; conditions: for inhibition at 0.14 µM: Human immunodeficiency virus 1, read-out: % Inhib of HIV
[4] = inhibition of MSI-1436 binding; conditions: 3H-MSI-1436 at 20 μg/mL
[5] = system: human ovarian carcinoma, SKOV3; experiment: anticancer activity against SKOV3; type: cell-based
LLC = LLC MTT; type: cell-based; conditions: Lewis lung carcinoma, 48 h; Table II; read-out: Minimum Effective Concentration, LLC MTT
Protocol: as §1

CC(CCC(=O)O)[C@H]1CCC2C3C(CC[C@@]21C)[C@@]1(C)CC[C@H](NCCCNCCCCNCCCN)C[C@@H]1C[C@H]3O (stereo partly shown)
MIC (E. Coli): 32 to 64 µg/mL (≈ 55.5 to 111 µM) | MIC (S. aureus): 16 µg/mL (≈ 27.7 µM) | MIC (C. albicans): 32 µg/mL (≈ 55.5 µM) | MIC (P. aerug): 16 µg/mL (≈ 27.7 µM)

COC(=O)CCC(C)[C@H]1CCC2C3C(CC[C@@]21C)[C@@]1(C)CC[C@H](NCCCNCCCCN)C[C@H]1C[C@H]3O (stereo partly shown)
MIC (E. Coli): 256 µg/mL (≈ 480 µM) | MIC (S. aureus): 64 µg/mL (≈ 120 µM) | MIC (C. albicans): 256 µg/mL (≈ 480 µM) | MIC (P. aerug): > 256 µg/mL

CC(CCC(=O)O)[C@H]1CCC2C3C(CC[C@@]21C)[C@@]1(C)CC[C@@H](NCCCNCCCCNCCCN)C[C@H]1C[C@H]3O (stereo partly shown)
MIC (E. Coli): 8 µg/mL (≈ 13.9 µM) | MIC (S. aureus): 64 µg/mL (≈ 111 µM)

CC(C)CCCC(C)[C@H]1CCC2C3CC[C@H]4C[C@@H](NCCCNCCCCNCCCN)CC[C@]4(C)C3CC[C@@]21C (stereo partly shown)
minimal effective concentration (melanoma cells): 3 µg/mL | minimal effective concentration ([1]; Table II, read-out: Minimum Effective Concentration, HM Cord Formation): 10 µg/mL

COC(=O)CC[C@@H](C)[C@H]1CC[C@H]2[C@@H]3[C@H](O)C[C@@H]4C[C@H](NCCN)CC[C@]4(C)[C@H]3CC[C@]12C [Compound 410]
inhibition of angiogenesis (in words) [1]: inhibit angiogenesis at higher doses | effect on vitelline capillaries (in words) ([2]; 3- to 5-day chick embryo): substantial activity | effect on embryonic epithelium / epithelial shedding (in words) [3]: functionally similar to compound 1437

COC(=O)CC[C@@H](C)[C@H]1CC[C@H]2[C@@H]3[C@H](O)C[C@@H]4C[C@@H](NCCCNCCCCNCCCN)CC[C@]4(C)[C@H]3CC[C@]12C [Compound 411]
inhibition of angiogenesis (in words) [1]: inhibit angiogenesis at higher doses | Chick embryo vitelline capillary regression ([2]; 1 μg applied, 60 minutes): +/-

COC(=O)CC[C@@H](C)[C@H]1CC[C@H]2[C@@H]3CC[C@H]4C[C@@H](NCCCNCCCCNCCCN)CC[C@]4(C)[C@H]3CC[C@]12C [Compound 459]
potency in the mitogen proliferation assay (in words) (splenocytes): substantial potency | induction of swelling of red blood cells (in words) (red blood cells): induce swelling of red blood cells

COC(=O)CC[C@@H](C)[C@H]1CC[C@H]2[C@@H]3C[C@@H](O)[C@H]4C[C@@H](NCCCNCCCCNCCCN)CC[C@]4(C)[C@H]3CC[C@]12C [Compound 466]
potency in the mitogen proliferation assay (in words) (splenocytes): substantial potency | induction of swelling of red blood cells (in words) (red blood cells): induce swelling of red blood cells

COC(=O)CC[C@@H](C)[C@H]1CC[C@H]2[C@@H]3C[C@@H](O)[C@H]4C[C@@H](NCCCNCCCCN)CC[C@]4(C)[C@H]3CC[C@]12C [Compound 566]
induction of swelling of red blood cells (in words) (red blood cells): induce swelling of red blood cells

COC(=O)CC[C@@H](C)[C@H]1CC[C@H]2[C@@H]3CC[C@@H]4C[C@H](NCCCNCCCCNCCCN)CC[C@]4(C)[C@H]3CC[C@]12C [Compound 569]
cytotoxicity at 14 µM (in vitro): 9% | inhibition of HIV relative to compound 1436 (in words) (HIV): higher inhibition of HIV than compound 1436 | inhibition at 0.14 µM (HIV): 91% | % Inhib. of MSI-1436 Binding @ 100 μg/mL [4]: 78% | MTT assay IC50 (melanoma cells; Tables III-V): 15 µg/mL | IC50 (melanoma cells; Tables III-V, read-out: MTT assay IC50): 14.5 µg/mL (≈ 25.2 µM) | Rel. potency to MSI-1436, Mitogen Proliferation Assay (splenocytes): 0.50 | potency in the mitogen proliferation assay (in words) (splenocytes): substantial potency

C=C(C)C(=O)CC[C@@H](C)[C@H]1CC[C@H]2[C@@H]3[C@H](O)C[C@H]4C[C@@H](NCCCNCCCCN)CC[C@]4(C)[C@H]3CC[C@]12C [Compound 1361, reference compound]
induction of swelling of red blood cells (in words) (red blood cells): induce swelling of red blood cells

CC(C)C(CO)(CC[C@@H](C)[C@H]1CC[C@H]2[C@@H]3[C@H](O)C[C@H]4C[C@@H](NCCCNCCCCN)CC[C@]4(C)[C@H]3CC[C@]12C)OS(=O)(=O)O (stereo partly shown) [Compound 1437]
anticancer activity (in words) [5]: exhibit anticancer activity | time to shedding of larval skin ([3]; 10 μg/ml): ≤ 60 min | effect on embryonic epithelium / epithelial shedding (in words) [3]: dramatic effect on the embryonic epithelium covering the tadpole tail; also recorded: larval skin was observed to shed off in a sheet

CO[C@@H]1[C@H](OC(=O)/C=C/C=C/C=C/C=C/C(=O)O)CC[C@]2(CO2)[C@H]1[C@@]1(C)O[C@@H]1CC=C(C)C [Fumagillin, reference compound]
minimal effective concentration ([1]; text to the table, read-out: concentration at which cord formation is inhibited): 10 µg/mL

COC(=O)CCC(C)[C@H]1CCC2C3C(CC[C@@]21C)[C@@]1(C)CC[C@@H](NCCCNCCCCN)C[C@H]1C[C@H]3O (stereo partly shown) [drawing 38]
MIC (E. Coli): 32 to 64 µg/mL (≈ 59.9 to 120 µM) | MIC (S. aureus): 4 µg/mL (≈ 7.49 µM) | MIC (C. albicans): 64 µg/mL (≈ 120 µM) | MIC (P. aerug): 64 µg/mL (≈ 120 µM)

CC(CC[C@@H](OS(=O)(=O)O)C(C)C)[C@H]1CCC2C3C(CC[C@@]21C)[C@@]1(C)CC[C@H](NCCCNCCCCNCCCN)C[C@@H]1C[C@H]3O (stereo partly shown) [drawing 51]
MIC (E. Coli): 1 to 2 µg/mL (≈ 1.46 to 2.92 µM) | MIC (S. aureus): 1 µg/mL (≈ 1.46 µM) | MIC (C. albicans): 8 µg/mL (≈ 11.7 µM) | MIC (P. aerug): 4 µg/mL (≈ 5.84 µM)

CC(CCC(CO)(OS(=O)(=O)O)C(C)C)[C@H]1CCC2C3C(CC[C@@]21C)[C@@]1(C)CC[C@H](NCCCNCCCCN)C[C@@H]1C[C@H]3O (stereo partly shown) [drawing 52]
MIC (E. Coli): 4 µg/mL (≈ 6.08 µM) | MIC (S. aureus): 2 µg/mL (≈ 3.04 µM) | MIC (C. albicans): 16 µg/mL (≈ 24.3 µM) | MIC (P. aerug): 16 µg/mL (≈ 24.3 µM)

CC(C)[C@@H](CC[C@@H](C)[C@H]1CC[C@H]2[C@@H]3[C@H](O)C[C@H]4C[C@@H](NCCCNCCCCN)CC[C@]4(C)[C@H]3CC[C@]12C)OS(=O)(=O)O [drawing 92]
minimal effective concentration (melanoma cells): 7.8 µg/mL | minimal effective concentration (LLC): 13.2 µg/mL

CC(CC[C@@H](OS(=O)(=O)O)C(C)C)[C@H]1CCC2C3C(CC[C@@]21C)[C@@]1(C)CC[C@H](NCCCNCCCCNCCCN)C[C@@H]1C[C@H]3O (stereo partly shown) [drawing 93]
minimal effective concentration (melanoma cells): 6.9 µg/mL | minimal effective concentration (LLC): 16.7 µg/mL

CC(CCC(CO)(OS(=O)(=O)O)C(C)C)[C@H]1CCC2C3C(CC[C@@]21C)[C@@]1(C)CC[C@H](NCCCNCCCCN)C[C@@H]1C[C@H]3O (stereo partly shown) [drawing 99]
cytotoxicity at 14 µM (in vitro): 0% | inhibition at 0.14 µM (HIV): -44% | % Inhib. of MSI-1436 Binding @ 100 μg/mL [4]: 14% | Rel. potency to MSI-1436, Mitogen Proliferation Assay (splenocytes): 1.08
